Test results: US10828316B2, “Method of treating bacterial infections” (priority 2016, dated 2020)
Values after ≈ are worked out from the molar mass of the structure shown. Where two headings read alike, the source gives them in different places.

Assays:
P. aeruginosa EN0004 = assay: MIC; type: cell-based; conditions: in AZT+trimethoprim+uridine combination
[1] = system: P. aeruginosa strain no 10; assay: MIC; type: cell-based, Pseudomonas aeruginosa; conditions: for MIC of AZT: P. aeruginosa strain no 10
E. coli strain no 5 = assay: MIC; type: cell-based; conditions: Escherichia coli, NO5, read-out: MIC of AZT
S. aureus strain no 13 = assay: MIC; conditions: Staphylococcus aureus, NO13, read-out: MIC of AZT
E. coli strain no 2 = assay: MIC; conditions: Escherichia coli
A. baumannii strain no 3 = assay: MIC; type: cell-based, Acinetobacter baumannii; conditions: for MIC of AZT: A. baumannii strain no 3
K. pneumoniae EN011 = assay: MIC; type: cell-based, Klebsiella pneumoniae; conditions: Klebsiella pneumoniae, EN011, K. pneumoniae EN011; Combination 1 (AZT+trimethoprim+uridine)
A. baumannii EN0007 = assay: MIC; type: cell-based, A. baumanii; conditions: in AZT+trimethoprim+uridine combination
E. coli EN013 = assay: MIC; type: cell-based, Escherichia coli; conditions: Escherichia coli, EN013, E. coli EN013
E. coli ATCC 25922 = assay: MIC, in vitro sensitivity of the strain used in vivo; conditions: Escherichia coli, ATCC25922, read-out: MIC against E. coli ATCC 25922

Structure (SMILES): Cc1cn([C@H]2C[C@H](N=[N+]=[N-])[C@@H](CO)O2)c(=O)[nH]c1=O [AZT, 3′-azido-3′-deoxythymidine]
- MIC (P. aeruginosa EN0004): >4 µg/mL
- MIC of AZT ([1]; uridine 10 μg/ml): >150 µg/mL
- MIC of AZT ([1]; uridine 50 μg/ml): >150 µg/mL
- MIC of AZT ([1]; uridine 100 μg/ml): >150 µg/mL
- MIC of AZT ([1]; uridine 200 μg/ml): >150 µg/mL
- MIC ([1]; Pseudomonas aeruginosa, NO10, read-out: MIC of AZT): > 150 µg/mL
- MIC (E. coli strain no 5): 4 to 8 µg/mL
- MIC (S. aureus strain no 13): > 150 µg/mL
- MIC (E. coli strain no 2; NO2, E. coli strain 2, 5 uM thymidine, uridine 0 μg/ml): > 30 µg/mL
- MIC (E. coli strain no 2; NO2, E. coli strain 2, 5 uM thymidine, uridine 10 μg/ml): 25 to 30 µg/mL (≈ 93.5 to 112 µM)
- MIC (E. coli strain no 2; NO2, E. coli strain 2, 5 uM thymidine, uridine 100 μg/ml): 10 to 20 µg/mL (≈ 37.4 to 74.8 µM)
- MIC (E. coli strain no 2; NO2, read-out: MIC AZT, E. coli strain 2, thymidine 0 μM, uridine 0): 20 to 30 µg/mL (≈ 74.8 to 112 µM)
- MIC (E. coli strain no 2; NO2, read-out: MIC AZT, E. coli strain 2, thymidine 0 μM, uridine 100 μg/ml): 5 to 10 µg/mL (≈ 18.7 to 37.4 µM)
- MIC (E. coli strain no 2; NO2, read-out: MIC AZT, E. coli strain 2, thymidine 10 μM, uridine 0): > 30 µg/mL
- MIC (E. coli strain no 2; NO2, read-out: MIC AZT, E. coli strain 2, thymidine 10 μM, uridine 100 μg/ml): > 30 µg/mL
- MIC (E. coli strain no 2; NO2, read-out: MIC AZT, E. coli strain 2, thymidine 10 μM, uridine 100 and trimethoprim 1 μg/ml): 0.1 to 0.5 µg/mL (≈ 0.374 to 1.87 µM)
- MIC (E. coli strain no 2; NO2, read-out: MIC AZT, E. coli strain 2, thymidine 30 μM, uridine 0): > 30 µg/mL
- MIC (E. coli strain no 2; NO2, read-out: MIC AZT, E. coli strain 2, thymidine 30 μM, uridine 100 μg/ml): > 30 µg/mL
- MIC (E. coli strain no 2; NO2, read-out: MIC of AZT, E. coli strain no 2, trimethoprim 0.5 μg/ml, uridine 0 μg/ml): 0.012 to 0.025 µg/mL
- MIC (E. coli strain no 2; NO2, read-out: MIC of AZT, E. coli strain no 2, trimethoprim 0.5 μg/ml, uridine 1 μg/ml): ≤ 0.006 µg/mL
- MIC (E. coli strain no 2; NO2, read-out: MIC of AZT, E. coli strain no 2, trimethoprim 0.5 μg/ml, uridine 10 μg/ml): 0.05 to 0.1 µg/mL
- MIC (E. coli strain no 2; NO2, read-out: MIC of AZT, E. coli strain no 2, trimethoprim 0.5 μg/ml, uridine 100 μg/ml): 0.025 to 0.05 µg/mL
- MIC (E. coli strain no 2; NO2, read-out: MIC of AZT, E. coli strain no 2, trimethoprim 0.5 μg/ml, uridine 200 μg/ml): 0.012 to 0.025 µg/mL
- MIC (E. coli strain no 2; NO2, read-out: MIC of AZT, E. coli strain no 2, trimethoprim 1 μg/ml, uridine 0 μg/ml): 0.012 to 0.025 µg/mL
- MIC (E. coli strain no 2; NO2, read-out: MIC of AZT, E. coli strain no 2, trimethoprim 1 μg/ml, uridine 1 μg/ml): ≤ 0.006 µg/mL
- MIC (E. coli strain no 2; NO2, read-out: MIC of AZT, E. coli strain no 2, trimethoprim 1 μg/ml, uridine 10 μg/ml): ≤ 0.006 µg/mL
- MIC (E. coli strain no 2; NO2, read-out: MIC of AZT, E. coli strain no 2, trimethoprim 1 μg/ml, uridine 100 μg/ml): 0.025 to 0.05 µg/mL
- MIC (E. coli strain no 2; NO2, read-out: MIC of AZT, E. coli strain no 2, trimethoprim 1 μg/ml, uridine 200 μg/ml): 0.012 to 0.025 µg/mL
- MIC (E. coli strain no 2; NO2, read-out: MIC of AZT, E. coli strain no 2, trimethoprim 2 μg/ml, uridine 0 μg/ml): 0.006 to 0.012 µg/mL
- MIC (E. coli strain no 2; NO2, read-out: MIC of AZT, E. coli strain no 2, trimethoprim 2 μg/ml, uridine 1 μg/ml): ≤ 0.006 µg/mL
- MIC (E. coli strain no 2; NO2, read-out: MIC of AZT, E. coli strain no 2, trimethoprim 2 μg/ml, uridine 10 μg/ml): ≤ 0.006 µg/mL
- MIC (E. coli strain no 2; NO2, read-out: MIC of AZT, E. coli strain no 2, trimethoprim 2 μg/ml, uridine 100 μg/ml): 0.012 to 0.025 µg/mL
- MIC (E. coli strain no 2; NO2, read-out: MIC of AZT, E. coli strain no 2, trimethoprim 2 μg/ml, uridine 200 μg/ml): 0.006 to 0.012 µg/mL
- MIC (E. coli strain no 2; NO2, read-out: MIC of AZT, E. coli strain no 2, uridine 0 μg/ml): 20 to 25 µg/mL
- MIC (E. coli strain no 2; NO2, read-out: MIC of AZT, E. coli strain no 2, uridine 10 μg/ml): 20 to 25 µg/mL
- MIC (E. coli strain no 2; NO2, read-out: MIC of AZT, E. coli strain no 2, uridine 50 μg/ml): 15 to 20 µg/mL
- MIC (E. coli strain no 2; NO2, read-out: MIC of AZT, E. coli strain no 2, uridine 100 μg/ml): 5 to 15 µg/mL
- MIC (E. coli strain no 2; NO2, read-out: MIC of AZT, E. coli strain no 2, uridine 200 μg/ml): 5 to 15 µg/mL
- MIC (E. coli strain no 2; NO2, read-out: MIC of AZT, Table 3, E. coli strain no 2, trimethoprim 0, uridine 0 μg/ml): 20 to 25 µg/mL
- MIC (E. coli strain no 2; NO2, read-out: MIC of AZT, Table 3, E. coli strain no 2, trimethoprim 0, uridine 1 μg/ml): 10 to 20 µg/mL
- MIC (E. coli strain no 2; NO2, read-out: MIC of AZT, Table 3, E. coli strain no 2, trimethoprim 0, uridine 10 μg/ml): 10 to 20 µg/mL
- MIC (E. coli strain no 2; NO2, read-out: MIC of AZT, Table 3, E. coli strain no 2, trimethoprim 0, uridine 100 μg/ml): 2 to 10 µg/mL
- MIC (E. coli strain no 2; NO2, read-out: MIC of AZT, Table 3, E. coli strain no 2, trimethoprim 0, uridine 200 μg/ml): 2 to 10 µg/mL
- log diff peritoneum vs start of treatment (E. coli; AZT 30 mg/kg): 0.38
- mean log peritoneum (E. coli; AZT 30 mg/kg): 5.68
- score at sampling (E. coli; AZT 30 mg/kg, single mice): 1
- inhibition in mice infected with E. coli (E. coli; murine peritonitis model): slight inhibition
- MIC of AZT (A. baumannii strain no 3; uridine 10 μg/ml): >150 µg/mL
- MIC of AZT (A. baumannii strain no 3; uridine 50 μg/ml): >150 µg/mL
- MIC of AZT (A. baumannii strain no 3; uridine 100 μg/ml): >150 µg/mL
- MIC of AZT (A. baumannii strain no 3; uridine 200 μg/ml): >150 µg/mL
- MIC (A. baumannii strain no 3; Acinetobacter baumannii, NO3, read-out: MIC of AZT): > 150 µg/mL
- MIC (K. pneumoniae EN011): 0.032 µg/mL
- MIC (A. baumannii EN0007): >4 µg/mL
- MIC (E. coli EN013; Combination 1 (AZT+trimethoprim+uridine)): < 0.008 µg/mL
- MIC (E. coli EN013; Combination 2 (same mixed with thymidine)): < 0.008 µg/mL
- MIC (E. coli EN013; in AZT+trimethoprim+uridine combination): < 0.008 µg/mL
- MIC (E. coli ATCC 25922): > 2 µg/mL
